The first experiment concerns Human immunodeficiency virus 1. The experiment is described as follows: Antiviral activity against NNRTI-resistant HIV-1 LAI harboring reverse transcriptase Y181C mutant infected in human MT4 cells assessed as inhibition of viral replication after 5 days by MTT assay. In kind it is functional, organism-based. The settings on record: Human immunodeficiency virus 1, LAI, MT4, 120 h. For orientation: Tetrazolium dyes change colour on reduction, which living cells bring about.
The IC50 is the concentration needed to halve the response being measured. On to `N#Cc1cc(Cl)cc(Oc2c(F)c(CCc3ccncc3)[nH]c(=O)c2Br)c1`, for which the IC50 is 11 nM.

As for `N#Cc1cc(Cl)cc(Oc2c(COCc3ccncc3)c[nH]c(=O)c2Br)c1`, the IC50 came out at 19 nM.

`Cc1[nH]c(=O)c(Br)c(Oc2cc(Cl)cc(C#N)c2)c1Cc1ccccc1`: the IC50 came to 29 nM.

`Cc1[nH]c(=O)c(Cl)c(Oc2cc(Cl)cc(C#N)c2)c1CCOc1ccccc1`: the IC50 worked out at 11 nM.

In the case of `Cc1[nH]c(=O)c(Cl)c(Oc2cc(Cl)cc(C#N)c2)c1CCCc1ccncc1`, the IC50 turned out to be 6 nM.

For `O=C1Nc2ccc(Cl)cc2[C@@](C#CC2CC2)(C(F)(F)F)O1` [EFAVIRENZ], the IC50 is 3 nM.

In the next experiment the target is Human immunodeficiency virus type 1 reverse transcriptase (Human immunodeficiency virus 1, UniProt Q72547, Y181C). The experiment is described as follows: Inhibition of polymerase activity of NNRTI-resistant HIV-1 LAI reverse transcriptase Y181C mutant.
Settings: not given
With `N#Cc1cc(Cl)cc(Oc2c(F)c(CCc3cccc(Cl)c3)[nH]c(=O)c2Br)c1`, the IC50 was 8 nM.

Compound `N#Cc1cc(Cl)cc(Oc2c(F)c(CCc3ccncc3)[nH]c(=O)c2Br)c1` displayed an IC50 of 1 nM.

`N#Cc1cc(Cl)cc(Oc2c(Cc3ccccc3)c[nH]c(=O)c2Br)c1` showed an IC50 of 41 nM.

Take `N#Cc1cc(Cl)cc(Oc2c(CCOc3cccnc3)c[nH]c(=O)c2Br)c1`: the concentration for half-maximal inhibition (IC50) is 8 nM.

On to `N#Cc1cc(Cl)cc(Oc2c(CCOc3ccncc3)c[nH]c(=O)c2Br)c1`, for which 8 nM corresponded to half-maximal inhibition (IC50).

`N#Cc1cc(Cl)cc(Oc2c(COCc3ccncc3)c[nH]c(=O)c2Br)c1` registered a concentration for half-maximal inhibition (IC50) of 11 nM.

Compound `Cc1[nH]c(=O)c(Br)c(Oc2cc(Cl)cc(C#N)c2)c1Cc1ccccc1` had an IC50 of 8 nM.

Compound `Cc1[nH]c(=O)c(Cl)c(Oc2cc(Cl)cc(C#N)c2)c1CCOc1ccccc1` showed an IC50 of 6 nM.

Consider `Cc1[nH]c(=O)c(Cl)c(Oc2cc(Cl)cc(C#N)c2)c1CCCc1ccncc1`, for which the IC50 was determined as 3 nM.

`N#Cc1cc(Cl)cc(Oc2cc(CCc3nc4ccccc4o3)[nH]c(=O)c2Cl)c1`: the midpoint of inhibition, the IC50, lay at 4 nM.

`N#Cc1cc(Cl)cc(Oc2cc(CCc3ccccn3)[nH]c(=O)c2Cl)c1`: inhibition was half-maximal at 33 nM (IC50).

In turn, `N#Cc1cc(Cl)cc(Oc2cc(CCc3cccnc3)[nH]c(=O)c2Cl)c1` returned a 50% inhibitory concentration (IC50) of 22 nM.

In turn, `N#Cc1cc(Cl)cc(Oc2cc(CCc3ccncc3)[nH]c(=O)c2Cl)c1` came in with an IC50 of 21 nM.

In turn, `N#Cc1cc(Cl)cc(Oc2cc(CCc3cccc(Cl)c3)[nH]c(=O)c2Cl)c1` came in with an IC50 of 7 nM.

In another experiment the test system is Human immunodeficiency virus 1. Kind of experiment: Antiviral activity against wild type HIV-1 LAI infected in human MT4 cells assessed as protection against virus-induced cell death after 5 days by MTT assay. In kind it is functional, organism-based. The settings on record: Human immunodeficiency virus 1, LAI, MT4, 120 h.
In the case of `CN(C)c1c(Oc2cc(Cl)cc(C#N)c2)cc(CC(=O)N2CCc3ccccc3C2)[nH]c1=O`, the IC50 is 35 nM.

As for `N#Cc1cc(Cl)cc(Oc2c(F)c(CC(=O)N3CCc4ccccc4C3)[nH]c(=O)c2Br)c1`, the IC50 turned out to be 50 nM.

Regarding `N#Cc1cc(Cl)cc(Oc2cc(CC(=O)N3CCc4ccccc4C3)[nH]c(=O)c2Cl)c1`, the IC50 amounted to 35 nM.

The next experiment relates to Human immunodeficiency virus 1. Kind of experiment: Potency index, ratio of efavirenz IC50 to compound IC50 for wild type HIV-1 LAI in presence of 40% human serum. In kind it is functional.
Settings: not given
On to `Cc1[nH]c(=O)c(Cl)c(Oc2cc(Cl)cc(C#N)c2)c1CCCc1ccncc1`, for which the “Ratio IC50” value is listed as 3.

A further experiment relates to Human immunodeficiency virus 1. The experiment is described as follows: Antiviral activity against wild type HIV-1 LAI infected in human MT4 cells assessed as inhibition of viral replication after 5 days by MTT assay. The settings on record: Human immunodeficiency virus 1, LAI, MT4, 120 h. Type of experiment: functional, organism-based.
For `N#Cc1cc(Cl)cc(Oc2c(F)c(CCc3ccncc3)[nH]c(=O)c2Br)c1`, the 50% inhibitory concentration (IC50) was found to be 5 nM.

Regarding `N#Cc1cc(Cl)cc(Oc2c(COCc3ccncc3)c[nH]c(=O)c2Br)c1`, the IC50 was determined as 7 nM.

For the compound `Cc1[nH]c(=O)c(Br)c(Oc2cc(Cl)cc(C#N)c2)c1Cc1ccccc1`, the IC50 was 6 nM.

For the compound `Cc1[nH]c(=O)c(Cl)c(Oc2cc(Cl)cc(C#N)c2)c1CCOc1ccccc1`, the IC50 came to 4 nM.

`Cc1[nH]c(=O)c(Cl)c(Oc2cc(Cl)cc(C#N)c2)c1CCCc1ccncc1`: the IC50 was 2 nM.

The next experiment has as its target Human immunodeficiency virus type 1 reverse transcriptase (Human immunodeficiency virus 1, UniProt Q72547). Kind of experiment: Inhibition of polymerase activity of wild type HIV-1 LAI reverse transcriptase.
Settings: not given
Turning to `CN(C)c1c(Oc2cc(Cl)cc(C#N)c2)cc(CC(=O)N2CCc3ccccc3C2)[nH]c1=O`, the IC50 stood at 220 nM.

In the case of `N#Cc1cc(Cl)cc(Oc2c(F)c(CCc3cccc(Cl)c3)[nH]c(=O)c2Br)c1`, 17 nM corresponded to half-maximal inhibition (IC50).

For the compound `N#Cc1cc(Cl)cc(Oc2c(F)c(CCc3ccncc3)[nH]c(=O)c2Br)c1`, the IC50 came out at 2 nM.

The compound `N#Cc1cc(Cl)cc(Oc2c(Cc3ccccc3)c[nH]c(=O)c2Br)c1` registered an IC50 of 34 nM.

In the case of `N#Cc1cc(Cl)cc(Oc2c(CCOc3cccnc3)c[nH]c(=O)c2Br)c1`, inhibition was half-maximal at 11 nM (IC50).

As for `N#Cc1cc(Cl)cc(Oc2c(CCOc3ccncc3)c[nH]c(=O)c2Br)c1`, the half-inhibitory concentration (IC50) was found to be 10 nM.

`N#Cc1cc(Cl)cc(Oc2c(COCc3ccncc3)c[nH]c(=O)c2Br)c1` had an IC50 of 21 nM.

As for `Cc1[nH]c(=O)c(Br)c(Oc2cc(Cl)cc(C#N)c2)c1Cc1ccccc1`, 10 nM corresponded to half-maximal inhibition (IC50).

Turning to `Cc1[nH]c(=O)c(Cl)c(Oc2cc(Cl)cc(C#N)c2)c1CCOc1ccccc1`, half-maximal inhibition (IC50) required 6 nM.

The compound `Cc1[nH]c(=O)c(Cl)c(Oc2cc(Cl)cc(C#N)c2)c1CCCc1ccncc1` showed an IC50 of 4 nM.

Regarding `N#Cc1cc(Cl)cc(Oc2c(F)c(CC(=O)N3CCc4ccccc4C3)[nH]c(=O)c2Br)c1`, the IC50 was 12 nM.

As for `N#Cc1cc(Cl)cc(Oc2cc(CC(=O)N3CCc4ccccc4C3)[nH]c(=O)c2Cl)c1`, the midpoint of inhibition, the IC50, lay at 30 nM.

Take `N#Cc1cc(Cl)cc(Oc2cc(CCc3ccccc3)[nH]c(=O)c2Cl)c1`: the midpoint of inhibition, the IC50, lay at 8 nM.

In the case of `N#Cc1cc(Cl)cc(Oc2cc(CCc3nc4ccccc4o3)[nH]c(=O)c2Cl)c1`, the IC50 was determined as 6 nM.

`N#Cc1cc(Cl)cc(Oc2cc(CCc3ccccn3)[nH]c(=O)c2Cl)c1`: inhibition was half-maximal at 21 nM (IC50).

`N#Cc1cc(Cl)cc(Oc2cc(CCc3cccnc3)[nH]c(=O)c2Cl)c1` gave an IC50 of 22 nM.

For `N#Cc1cc(Cl)cc(Oc2cc(CCc3ccncc3)[nH]c(=O)c2Cl)c1`, the IC50 came to 19 nM.

In turn, `N#Cc1cc(Cl)cc(Oc2cc(CCc3cccc(Cl)c3)[nH]c(=O)c2Cl)c1` displayed an IC50 of 12 nM.

`N#Cc1cc(Cl)cc(Oc2c(F)c(CCc3ccccc3)[nH]c(=O)c2Cl)c1` yielded an IC50 of 7 nM.

The next experiment concerns the target Human immunodeficiency virus type 1 reverse transcriptase (Human immunodeficiency virus 1, UniProt Q72547, K103N). The experiment is described as follows: Inhibition of polymerase activity of NNRTI-resistant HIV-1 LAI reverse transcriptase K103N mutant.
Settings: not given
Compound `N#Cc1cc(Cl)cc(Oc2c(F)c(CCc3cccc(Cl)c3)[nH]c(=O)c2Br)c1` had an IC50 of 8 nM.

Turning to `N#Cc1cc(Cl)cc(Oc2c(F)c(CCc3ccncc3)[nH]c(=O)c2Br)c1`, the IC50 came out at 1 nM.

In turn, `N#Cc1cc(Cl)cc(Oc2c(Cc3ccccc3)c[nH]c(=O)c2Br)c1` returned an IC50 of 71 nM.

`N#Cc1cc(Cl)cc(Oc2c(CCOc3cccnc3)c[nH]c(=O)c2Br)c1` displayed an IC50 of 16 nM.

For the compound `N#Cc1cc(Cl)cc(Oc2c(CCOc3ccncc3)c[nH]c(=O)c2Br)c1`, the concentration for half-maximal inhibition (IC50) is 14 nM.

As for `N#Cc1cc(Cl)cc(Oc2c(COCc3ccncc3)c[nH]c(=O)c2Br)c1`, half-maximal inhibition (IC50) was put at 13 nM.

`Cc1[nH]c(=O)c(Br)c(Oc2cc(Cl)cc(C#N)c2)c1Cc1ccccc1` showed an IC50 of 7 nM.

In turn, `Cc1[nH]c(=O)c(Cl)c(Oc2cc(Cl)cc(C#N)c2)c1CCOc1ccccc1` registered an IC50 of 5 nM.

`Cc1[nH]c(=O)c(Cl)c(Oc2cc(Cl)cc(C#N)c2)c1CCCc1ccncc1` registered an IC50 of 2 nM.

As for `N#Cc1cc(Cl)cc(Oc2cc(CCc3nc4ccccc4o3)[nH]c(=O)c2Cl)c1`, half-maximal inhibition (IC50) was put at 16 nM.

In turn, `N#Cc1cc(Cl)cc(Oc2cc(CCc3ccccn3)[nH]c(=O)c2Cl)c1` gave an IC50 of 78 nM.

Turning to `N#Cc1cc(Cl)cc(Oc2cc(CCc3cccnc3)[nH]c(=O)c2Cl)c1`, the IC50 came out at 16 nM.

In turn, `N#Cc1cc(Cl)cc(Oc2cc(CCc3ccncc3)[nH]c(=O)c2Cl)c1` displayed an IC50 of 14 nM.

On to `N#Cc1cc(Cl)cc(Oc2cc(CCc3cccc(Cl)c3)[nH]c(=O)c2Cl)c1`, for which the IC50 was 6 nM.

A further experiment deals with Human immunodeficiency virus 1. Kind of experiment: Antiviral activity against wild type HIV-1 LAI infected in human MT4 cells assessed as inhibition of viral replication after 5 days by MTT assay in presence of 40% human serum. The settings on record: Human immunodeficiency virus 1, LAI, MT4, 120 h. In kind it is functional, organism-based.
With `N#Cc1cc(Cl)cc(Oc2c(F)c(CCc3ccncc3)[nH]c(=O)c2Br)c1`, the IC50 worked out at 23 nM.

`N#Cc1cc(Cl)cc(Oc2c(COCc3ccncc3)c[nH]c(=O)c2Br)c1`: the IC50 was found to be 10 nM.

On to `Cc1[nH]c(=O)c(Br)c(Oc2cc(Cl)cc(C#N)c2)c1Cc1ccccc1`, for which the IC50 stood at 32 nM.

As to `Cc1[nH]c(=O)c(Cl)c(Oc2cc(Cl)cc(C#N)c2)c1CCOc1ccccc1`, the IC50 was determined as 13 nM.

As to `Cc1[nH]c(=O)c(Cl)c(Oc2cc(Cl)cc(C#N)c2)c1CCCc1ccncc1`, the IC50 amounted to 5 nM.

The next experiment relates to Human immunodeficiency virus 1. Kind of experiment: Antiviral activity against NNRTI-resistant HIV-1 LAI harboring reverse transcriptase K103N mutant infected in human MT4 cells assessed as inhibition of viral replication after 5 days by MTT assay. Type of experiment: functional, organism-based. The settings on record: Human immunodeficiency virus 1, LAI, MT4, 120 h.
Regarding `N#Cc1cc(Cl)cc(Oc2c(COCc3ccncc3)c[nH]c(=O)c2Br)c1`, the IC50 was 13 nM.

`Cc1[nH]c(=O)c(Br)c(Oc2cc(Cl)cc(C#N)c2)c1Cc1ccccc1`: the IC50 came to 16 nM.

Turning to `Cc1[nH]c(=O)c(Cl)c(Oc2cc(Cl)cc(C#N)c2)c1CCOc1ccccc1`, the IC50 was 24 nM.

For `O=C1Nc2ccc(Cl)cc2[C@@](C#CC2CC2)(C(F)(F)F)O1` [EFAVIRENZ], the IC50 was determined as 65 nM.

Source of the values: ChEMBL document CHEMBL3390846, “Synthesis and biological activity of new pyridone diaryl ether non-nucleoside inhibitors of HIV-1 reverse transcriptase” (Medchemcomm, 2010).
